The text below walks through data of patent publication US20260138976A1 (Hoffmann-La Roche Inc., priority 2022, published 2026).

Assay [1] deals with primary human T-cells. Description: Proliferation assay (5 days, CellTiter-Glo, CD3-stimulated T-cells). The format is cell-based. As to conditions: for Emax proliferation (% activation): CD3 condition, normalised to DMSO (neutral) and 20 μM reference compound A1 = 100%; for EC50: Homo sapiens, T-cell, 120 h, CD3-stimulated primary human T-cells, 5 days, CellTiter-Glo, fitted sigmoidal curve, read-out: Tcell Proliferation CD3 EC50. In a few lines: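 Expanded primary human T-cells, 100 k cells/well, were stimulated with plate-coated CD3 antibody (donor-titrated) and given compound in a 5 or 6 pt dose response from 20 μM or 10 μM final top, 0.2% DMSO final. ATP was read by CellTiter-Glo after 5 days. EC50 and Emax were reported as % of 20 μM reference compound A1.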
A general note: ATP-based viability assays read luminescence as a measure of living cells.

In assay [2] the test system is primary human T-cells. Put plainly: IL2 secretion measurements (24 h, CD3-stimulated T-cells, PBS counter screen). As to conditions: for Emax IL2 (% activation): CD3 condition, normalised to DMSO (neutral) and 20 μM reference compound A1 = 100%; for EC50: Homo sapiens, T-cell, CD3-stimulated primary human T-cells, IL2 secretion, fitted sigmoidal curve, read-out: Tcell IL2 CD3 EC50. It is filed as cell-based. In a few lines: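 Expanded primary human T-cells (100k/well) were plated on anti-CD3-coated or PBS-only plates with compound in a 5–6 point dose response (top 20 or 10 μM final, 3.333-fold, 0.2% DMSO). IL-2 in 24 h supernatants was quantified by ProQuantum immunoassay or ELISA. Values were normalized to DMSO and 20 μM reference compound A1 (100%), giving EC50 and Emax.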
(Counterscreens check selectivity or assay interference.)

With `CC(F)(F)c1ccc(-c2ccc(CN3C(=O)[C@@H](N)CS(=O)(=O)c4ccc(-c5nnc(C(C)(C)C#N)o5)cc43)cc2)nc1` [Example 109, 2-[5-[(3R)-3-amino-5-[[4-[5-(1,1-difluoroethyl)-2-pyridyl]phenyl]methyl]-1,1,4-trioxo-2,3-dihydro-1λ^6,5-benzothiazepin-7-yl]-1,3,4-oxadiazol-2-yl]-2-methyl-propanenitrile], in the assay on primary human T-cells [1], the “Emax proliferation (% activation)” value was found to be 129 % activation and the EC50 came out at 445 nM. In the assay with primary human T-cells [2], the “Emax IL2 (% activation)” value was found to be 360 % activation and the EC50 is 3400 nM.
Take `COC(F)(c1nnc(-c2ccc3c(c2)N(Cc2ccc(-c4noc(C(F)(F)F)n4)cc2)C(=O)[C@@H](N)CS3(=O)=O)o1)C(F)(F)F` (stereo partly drawn) [Example 37, (3R)-3-amino-1,1-dioxo-7-[5-(1,2,2,2-tetrafluoro-1-methoxy-ethyl)-1,3,4-oxadiazol-2-yl]-5-[[4-[5-(trifluoromethyl)-1,2,4-oxadiazol-3-yl]phenyl]methyl]-2,3-dihydro-1λ^6,5-benzothiazepin-4-one]: in the assay with primary human T-cells [1], the “Emax proliferation (% activation)” value is 173 % activation and the EC50 was 304 nM. Besides, in the assay on primary human T-cells [2], the “Emax IL2 (% activation)” value was found to be 198 % activation and the EC50 stood at 338 nM.
As to `C[C@@](N)(c1nnc(-c2ccc3c(c2)N(Cc2ccc(-n4nnc(C(F)(F)F)n4)cc2)C(=O)[C@@H](N)CS3(=O)=O)o1)C(F)(F)F` [Example 156, (3R)-3-amino-7-[5-[(1R)-1-amino-2,2,2-trifluoro-1-methyl-ethyl]-1,3,4-oxadiazol-2-yl]-1,1-dioxo-5-[[4-[5-(trifluoromethyl)tetrazo 1-2-yl]phenyl]methyl]-2,3-dihydro-1λ^6,5-benzothiazepin-4-one], in the assay with primary human T-cells [1], the “Emax proliferation (% activation)” value is 141 % activation and the EC50 turned out to be 1710 nM. In the assay on primary human T-cells [2], the “Emax IL2 (% activation)” value is 554 % activation and the EC50 worked out at 2110 nM.
Take `C[C@@](N)(c1nnc(-c2ccc3c(c2)N(Cc2ccc(-c4ccc(C(F)(F)F)cn4)cc2)C(=O)[C@@H](N)CS3(=O)=O)o1)C(F)(F)F` [Example 154, (3R)-3-amino-7-[5-[(1R)-1-amino-2,2,2-trifluoro-1-methyl-ethyl]-1,3,4-oxadiazol-2-yl]-1,1-dioxo-5-[[4-[5-(trifluoromethyl)-2-pyridyl]phenyl]methyl]-2,3-dihydro-1λ^6,5-benzothiazepin-4-one]: in the assay on primary human T-cells [1], the “Emax proliferation (% activation)” value came to 151 % activation and the EC50 came to 984 nM. In the assay with primary human T-cells [2], the “Emax IL2 (% activation)” value turned out to be 127 % activation and the EC50 turned out to be 991 nM.
In the case of `N[C@H]1CS(=O)(=O)c2cc(F)c(-c3noc(C4(N)COC4)n3)cc2N(Cc2ccc(-c3ccc(C(F)(F)F)cn3)cc2)C1=O` [Example 10, (3R)-3-amino-7-[5-(3-aminooxetan-3-yl)-1,2,4-oxadiazol-3-yl]-8-fluoro-1,1-dioxo-5-[[4-[5-(trifluoromethyl)-2-pyridyl]phenyl]methyl]-2,3-dihydro-1λ^6,5-benzothiazepin-4-one], in the assay on primary human T-cells [1], the “Emax proliferation (% activation)” value was 133 % activation and the EC50 came to 1920 nM. Besides, in the assay with primary human T-cells [2], the “Emax IL2 (% activation)” value is 123 % activation and the EC50 was determined as 9430 nM.
`CC1(Nc2nnc(-c3cc4c(cc3F)S(=O)(=O)C[C@H](N)C(=O)N4Cc3ccc(-c4noc(C(F)(F)F)n4)cc3)o2)CC(F)(F)C1` [Example 3, (3R)-3-amino-7-[5-[(3,3-difluoro-1-methyl-cyclobutyl)amino]-1,3,4-oxadiazol-2-yl]-8-fluoro-1,1-dioxo-5-[[4-[5-(trifluoromethyl)-1,2,4-oxadiazol-3-yl]phenyl]methyl]-2,3-dihydro-1λ^6,5-benzothiazepin-4-one]: in the assay with primary human T-cells [1], the “Emax proliferation (% activation)” value is recorded as 165 % activation and the EC50 was determined as 795 nM. Moreover, in the assay with primary human T-cells [2], the “Emax IL2 (% activation)” value is reported as 594 % activation and the EC50 turned out to be 213 nM.
The matching figures for `CC(C)(C#N)c1nnc(-c2ccc3c(c2)N(Cc2ccc(-c4ccc(OC(F)F)cn4)cc2)C(=O)[C@@H](N)CS3(=O)=O)o1` [Example 108, 2-[5-[(3R)-3-amino-5-[[4-[5-(difluoromethoxy)-2-pyridyl]phenyl]methyl]-1,1,4-trioxo-2,3-dihydro-1λ^6,5-benzothiazepin-7-yl]-1,3,4-oxadiazol-2-yl]-2-methyl-propanenitrile]: 204 % activation, 820 nM, 245 % activation and 1560 nM.
On to `CCC(O)(c1nnc(-c2ccc3c(c2)N(Cc2ccc(-c4noc(C(F)(F)F)n4)cc2)C(=O)[C@@H](N)CS3(=O)=O)o1)C(F)(F)F` (stereo partly drawn) [Example 95], for which, in the assay with primary human T-cells [1], the “Emax proliferation (% activation)” value is 104 % activation and the EC50 came out at 1640 nM. In the assay on primary human T-cells [2], the “Emax IL2 (% activation)” value stood at 172 % activation and the EC50 amounted to 808 nM.
The corresponding values for `CC(C)(C#N)c1nnc(-c2ccc3c(c2)N(Cc2ccc(-c4ccc(C5CC5)cn4)cc2)C(=O)[C@@H](N)CS3(=O)=O)o1` [Example 118, 2-[5-[(3R)-3-amino-5-[[4-(5-cyclopropyl-2-pyridyl)phenyl]methyl]-1,1,4-trioxo-2,3-dihydro-1λ^6,5-benzothiazepin-7-yl]-1,3,4-oxadiazol-2-yl]-2-methyl-propanenitrile] are 144 % activation, 1570 nM, 172 % activation and 4070 nM.
The matching figures for `N[C@H]1CS(=O)(=O)c2ccc(-c3nnc(C4(N)CCCCC4)o3)cc2N(Cc2ccc(-c3ccc(C(F)(F)F)cn3)cc2)C1=O` [Example 41, (3R)-3-amino-7-[5-(1-aminocyclohexyl)-1,3,4-oxadiazol-2-yl]-1,1-dioxo-5-[[4-[5-(trifluoromethyl)-2-pyridyl]phenyl]methyl]-2,3-dihydro-1λ^6,5-benzothiazepin-4-one]: 85 % activation, 902 nM, 66 % activation and 3340 nM.
For the compound `CC(C)(C#N)c1nnc(-c2ccc3c(c2)N(Cc2ccc(-c4cnn(C(F)(F)F)c4)cc2)C(=O)[C@@H](N)CS3(=O)=O)o1` [Example 115, 2-[5-[(3R)-3-amino-1,1,4-trioxo-5-[[4-[1-(trifluoromethyl)pyrazol-4-yl]phenyl]methyl]-2,3-dihydro-1λ^6,5-benzothiazepin-7-yl]-1,3,4-oxadiazol-2-yl]-2-methyl-propanenitrile], in the assay with primary human T-cells [1], the “Emax proliferation (% activation)” value amounted to 140 % activation and the EC50 came to 278 nM. Besides, in the assay with primary human T-cells [2], the “Emax IL2 (% activation)” value came to 112 % activation and the EC50 turned out to be 507 nM.
For `N[C@H]1CS(=O)(=O)c2ccc(-c3nnc(N4CCC(F)(F)CC4)o3)cc2N(Cc2ccc(-n3ccc(C(F)(F)F)n3)cc2)C1=O` [Example 162, (3R)-3-amino-7-[5-(4,4-difluoro-1-piperidyl)-1,3,4-oxadiazol-2-yl]-1,1-dioxo-5-[[4-[3-(trifluoromethyl)pyrazol-1-yl]phenyl]methyl]-2,3-dihydro-1λ^6,5-benzothiazepin-4-one], in the assay on primary human T-cells [1], the “Emax proliferation (% activation)” value is 186 % activation and the EC50 worked out at 563 nM. In the assay on primary human T-cells [2], the “Emax IL2 (% activation)” value was determined as 185 % activation and the EC50 was 1410 nM.
As for `CC(C)(C#N)c1nnc(-c2ccc3c(c2)N(Cc2ccc(-c4ncc(C(F)(F)F)o4)cc2)C(=O)[C@@H](N)CS3(=O)=O)o1` [Example 105, 2-[5-[(3R)-3-amino-1,1,4-trioxo-5-[[4-[5-(trifluoromethyl)oxazol-2-yl]phenyl]methyl]-2,3-dihydro-1λ^6,5-benzothiazepin-7-yl]-1,3,4-oxadiazol-2-yl]-2-methyl-propanenitrile], in the assay on primary human T-cells [1], the “Emax proliferation (% activation)” value was 138 % activation and the EC50 stood at 391 nM. Besides, in the assay on primary human T-cells [2], the “Emax IL2 (% activation)” value is listed as 146 % activation and the EC50 came to 999 nM.
`N[C@H]1CS(=O)(=O)c2ccc(-c3nnc(N4CCC(F)(F)CC4)o3)cc2N(Cc2ccc(-c3noc(C(F)(F)F)n3)cc2)C1=O` [Example 68, (3R)-3-amino-7-[5-(4,4-difluoro-1-piperidyl)-1,3,4-oxadiazol-2-yl]-1,1-dioxo-5-[[4-[5-(trifluoromethyl)-1,2,4-oxadiazol-3-yl]phenyl]methyl]-2,3-dihydro-1λ^6,5-benzothiazepin-4-one]: in the assay on primary human T-cells [1], the “Emax proliferation (% activation)” value is 104 % activation and the EC50 amounted to 26.1 nM. In the assay with primary human T-cells [2], the “Emax IL2 (% activation)” value amounted to 351 % activation and the EC50 was determined as 1160 nM.
On to `CC(C#N)c1nnc(-c2ccc3c(c2)N(Cc2ccc(-c4noc(C(F)(F)F)n4)cc2)C(=O)[C@@H](N)CS3(=O)=O)o1` (stereo partly drawn) [Example 35, 2-[5-[(3R)-3-amino-1,1,4-trioxo-5-[[4-[5-(trifluoromethyl)-1,2,4-oxadiazol-3-yl]phenyl]methyl]-2,3-dihydro-1λ^6,5-benzothiazepin-7-yl]-1,3,4-oxadiazol-2-yl]propanenitrile], for which, in the assay on primary human T-cells [1], the “Emax proliferation (% activation)” value amounted to 99 % activation and the EC50 is 2490 nM. Besides, in the assay on primary human T-cells [2], the “Emax IL2 (% activation)” value is 193 % activation and the EC50 amounted to 2150 nM.
